The source of these data is ChEMBL document CHEMBL1142591, “Scalusamides A-C, new pyrrolidine alkaloids from the marine-derived fungus Penicillium citrinum” (2005).

Converted amounts (≈) assume the structure as drawn.

The test system of one test is Cryptococcus neoformans. As to the kind of experiment: Antifungal activity against Cryptococcus neoformans. It is filed as functional.
The subject of the next test is Micrococcus luteus. The test can be described thus: Antibacterial activity against Micrococcus luteus. It is filed as functional.

Usually MIC stands for the lowest concentration that inhibits growth of the organism.

In the case of `C/C=C/CCCCC(=O)C(C)C(=O)N1CCC[C@@H]1CO` (some centres not stated) [SCALUSAMIDE A], the minimal inhibitory concentration (MIC) in the test on Cryptococcus neoformans was found to be 16.7 µg/mL (≈ 59.3 µM); in the test with Micrococcus luteus, 33.3 µg/mL (≈ 118 µM).
